In US20250250237A1, “ALKYLAMINE OR HETEROALKYLAMINE DERIVATIVES AS INHIBITORS OF NITRIC OXIDE SYNTHASES (NOS), PHARMACEUTICAL PRODUCTS THEREOF, AND METHODS THEREOF” (Gacter Inc., priority 2022, published 2025):
In brackets after ≈: the same amount, converted by molar mass.

Tests used:
[1] = Kinetic solubility assay (HPLC external standard); format: physicochemical; details: PBS pH 7.4 with 2% DMSO, PBS pH 7.4, 2% DMSO, 37° C.
Procedure: This kinetic solubility assay assesses our compounds in pH 7.4 PBS, mimicking physiological conditions relevant to oral absorption and tumor targeting. Test solutions were prepared by mixing 10 μL of stock with 490 μL of PBS (pH 7.4, 2% DMSO), followed by shaking at 37° C. for 3 hours, centrifugation, and a 2× dilution with methanol. Solubility was quantified in μM using HPLC analysis on a C18 column at 35° C., with a 5-85% acetonitrile gradient and 20 μL injections, performed in duplicate.
The assay was conducted using a modified HPLC-based external standard method. For Solution Preparation, (1) Buffer: Phosphate-buffered saline (PBS) at pH 7.4; (2) Compound Stock Solutions: 10 mM concentration in DMSO; (3) Test Solutions: Mix 10 μL of the stock solution with 490 μL of PBS in a 2 mL EP tube (final 2% DMSO v/v), shake at 37° C. for 3 hours, centrifuge at 12,000 RPM for 5-10 minutes, take 100 μL of supernatant, add 100 μL methanol, mix well to use as the test solution. […] For Data Analysis, concentration calculations are based on peak area ratios, accounting for the 2× dilution factor.

mice = details: doses as low as 10 mg/kg; cited from earlier work
rats = details: doses as low as 10 mg/kg; cited from earlier work

SMILES | solubility at 3 h [1] [µM] | acute toxicity (mice) | acute toxicity (rats)
NCC[C@@H](Oc1cc(Cl)cc2[nH]ncc12)c1ccccc1 [GT-6045] | 188 (≈ 56.9 µg/mL) | – | –
CNCC[C@@H](Oc1cc(Cl)cc2[nH]ncc12)c1ccccc1 [GT-6059, (R)-3-((6-chloro-1H-indazol-4-yl)oxy)—N-methyl-3-phenylpropan-1-amine] | 169 (≈ 53.5 µg/mL) | – | –
N=C(N)SCCc1ccc(CCSC(=N)N)cc1 [PBIT, S,S′-1,4-phenylene-bis(1,2-ethanediyl)bis-isothiourea] | – | acutely toxic | acutely toxic

Second part, led by results:

solubility at 3 h [1] [µM] | SMILES | acute toxicity (mice) | acute toxicity (rats)
157 (≈ 47.3 µg/mL) | NCC[C@@H](Oc1cc(Cl)cc2[nH]cnc12)c1ccccc1 [GT-6041, (R)-3-((6-chloro-1H-benzo[d]imidazol-4-yl)oxy)-3-phenylpropan-1-amine] | – | –
177 (≈ 55.8 µg/mL) | CNCC[C@@H](Oc1cc(Cl)cc2[nH]cnc12)c1ccccc1 [GT-6058, (R)-3-((6-chloro-1H-benzo[d]imidazol-4-yl)oxy)—N-methyl-3-phenylpropan-1-amine] | – | –
176 (≈ 60.8 µg/mL) | OCCNCC[C@@H](Oc1cc(Cl)cc2[nH]cnc12)c1ccccc1 [GT-6060, (R)-2-((3-((6-chloro-1H-benzo[d]imidazol-4-yl)oxy)-3-phenylpropyl)amino) ethan-1-ol] | – | –
